# Measurements: US5525595A, “3- or 4-glycosyloxybenzopyran derivative and antiallergic agent containing the derivative as active ingredient” (priority 1993, dated 1996)
# Test system: homologous passive cutaneous anaphylaxis (PCA) reaction
# Experiment: Effect on homologous passive cutaneous anaphylaxis (PCA) reaction in rats
# Type: in vivo, rats (Male wistar rats)
# Details: Rattus norvegicus, 0.5 h; 100 mg/kg oral, 1 hour before antigen, rats; Table 3
# Method in brief: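 Male Wistar rats (9 weeks) sensitized intradermally with anti-TNP-ascaris serum; 48 h later compounds dosed orally at 100 mg/kg in 0.5% CMCNa, n=5 per group. Challenge 1 h post-dose with i.v. TNP-As plus Evans Blue; blue-spot diameter measured at 30 min, inhibition calculated versus vehicle group.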
row,Structure (SMILES),inhibition in vivo at 100 mg/kg [%]
1,CCCCCCCCOc1ccc2c(O[C@H]3O[C@H](CO)[C@@H](O)[C@H](O)[C@@H]3O)c(O)c(=O)oc2c1 [compound 80],50.5
2,CCCCCCCCCCOc1ccc2c(O[C@H]3O[C@H](CO)[C@@H](O)[C@H](O)[C@@H]3O)c(O)c(=O)oc2c1 [compound 81],48.3
3,CCCCCCCCCCCCOc1ccc2c(O[C@H]3O[C@H](CO)[C@@H](O)[C@H](O)[C@@H]3O)c(O)c(=O)oc2c1 [compound 82],47.3
4,CC(C)Oc1ccc2c(O[C@H]3O[C@H](CO)[C@@H](O)[C@H](O)[C@@H]3O)c(O)c(=O)oc2c1 [compound 83],49.3
5,CCC=CCCOc1ccc2c(O[C@H]3O[C@H](CO)[C@@H](O)[C@H](O)[C@@H]3O)c(O)c(=O)oc2c1 [compound 84],45.5
6,CC(C)=CCC/C(C)=C/COc1ccc2c(O[C@H]3O[C@H](CO)[C@@H](O)[C@H](O)[C@@H]3O)c(O)c(=O)oc2c1 [compound 85],47.6
7,O=C(Oc1ccc2c(O[C@H]3O[C@H](CO)[C@@H](O)[C@H](O)[C@@H]3O)c(O)c(=O)oc2c1)c1ccccc1 [compound 86],43
8,COc1ccc2c(O[C@H]3O[C@H](CO)[C@@H](O)[C@H](O)[C@@H]3O)c(OC(=O)c3ccccc3)c(=O)oc2c1 [compound 87],44.7
9,CCCCOc1ccc2c(O[C@H]3O[C@H](CO)[C@@H](O)[C@H](O)[C@@H]3O)c(OC(C)=O)c(=O)oc2c1 [compound 88],45.8
10,CCCCCCCCCCCCOc1ccc2c(O[C@H]3O[C@H](CO)[C@@H](O)[C@H](O)[C@@H]3O)c(OC(C)=O)c(=O)oc2c1 [compound 89],43.7
11,O=c1oc2cc(OCc3ccccc3)ccc2c(O[C@H]2O[C@H](CO)[C@@H](O)[C@H](O)[C@@H]2O)c1O [compound 90],45.3
12,O=c1oc2cc(O)ccc2c(O[C@@H]2O[C@H](CO)[C@H](O)[C@H](O)[C@H]2O)c1O [compound 91],40.4
13,COc1ccc2c(O[C@@H]3O[C@H](CO)[C@H](O)[C@H](O)[C@H]3O)c(O)c(=O)oc2c1 [compound 92],50.2
14,CCCCOc1ccc2c(O[C@@H]3O[C@H](CO)[C@H](O)[C@H](O)[C@H]3O)c(O)c(=O)oc2c1 [compound 93],57.6
15,CCCCCCCCOc1ccc2c(O[C@@H]3O[C@H](CO)[C@H](O)[C@H](O)[C@H]3O)c(O)c(=O)oc2c1 [compound 94],63.3
16,CCCCCCCCCCOc1ccc2c(O[C@@H]3O[C@H](CO)[C@H](O)[C@H](O)[C@H]3O)c(O)c(=O)oc2c1 [compound 95],65.1

# Test system: airway resistance in experimental asthma model
# Experiment: Effect on experimental asthma model in guinea pigs
# Type: in vivo, guinea pigs (Male hadley)
# Details: Cavia porcellus; 100 mg/kg oral, OVA challenge, guinea pigs; Table 7
# Method in brief: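 Male Hartley guinea pigs sensitized i.p. with 5 mg ovalbumin three times weekly, challenged 2 weeks later by 1 min inhalation of 1% OVA. Compounds dosed orally at 100 mg/kg in 0.5% CMCNa; airway resistance recorded 30 min, inhibition % from maximum resistance versus vehicle (n=5).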
row,Structure (SMILES),inhibition in vivo at 100 mg/kg [%]
1,CCCCCCCCOc1ccc2c(O[C@H]3O[C@H](CO)[C@@H](O)[C@H](O)[C@@H]3O)c(O)c(=O)oc2c1 [compound 80],63.3
2,CCCCCCCCCCOc1ccc2c(O[C@H]3O[C@H](CO)[C@@H](O)[C@H](O)[C@@H]3O)c(O)c(=O)oc2c1 [compound 81],63.1
3,CCCCCCCCCCCCOc1ccc2c(O[C@H]3O[C@H](CO)[C@@H](O)[C@H](O)[C@@H]3O)c(O)c(=O)oc2c1 [compound 82],55.1
4,CC(C)Oc1ccc2c(O[C@H]3O[C@H](CO)[C@@H](O)[C@H](O)[C@@H]3O)c(O)c(=O)oc2c1 [compound 83],46.9
5,CCC=CCCOc1ccc2c(O[C@H]3O[C@H](CO)[C@@H](O)[C@H](O)[C@@H]3O)c(O)c(=O)oc2c1 [compound 84],47.1
6,CC(C)=CCC/C(C)=C/COc1ccc2c(O[C@H]3O[C@H](CO)[C@@H](O)[C@H](O)[C@@H]3O)c(O)c(=O)oc2c1 [compound 85],48.5
7,O=C(Oc1ccc2c(O[C@H]3O[C@H](CO)[C@@H](O)[C@H](O)[C@@H]3O)c(O)c(=O)oc2c1)c1ccccc1 [compound 86],41.2
8,COc1ccc2c(O[C@H]3O[C@H](CO)[C@@H](O)[C@H](O)[C@@H]3O)c(OC(=O)c3ccccc3)c(=O)oc2c1 [compound 87],42.5
9,CCCCOc1ccc2c(O[C@H]3O[C@H](CO)[C@@H](O)[C@H](O)[C@@H]3O)c(OC(C)=O)c(=O)oc2c1 [compound 88],43.5
10,CCCCCCCCCCCCOc1ccc2c(O[C@H]3O[C@H](CO)[C@@H](O)[C@H](O)[C@@H]3O)c(OC(C)=O)c(=O)oc2c1 [compound 89],43.2
11,O=c1oc2cc(OCc3ccccc3)ccc2c(O[C@H]2O[C@H](CO)[C@@H](O)[C@H](O)[C@@H]2O)c1O [compound 90],40.5
12,O=c1oc2cc(O)ccc2c(O[C@@H]2O[C@H](CO)[C@H](O)[C@H](O)[C@H]2O)c1O [compound 91],45.1
13,COc1ccc2c(O[C@@H]3O[C@H](CO)[C@H](O)[C@H](O)[C@H]3O)c(O)c(=O)oc2c1 [compound 92],57.7
14,CCCCOc1ccc2c(O[C@@H]3O[C@H](CO)[C@H](O)[C@H](O)[C@H]3O)c(O)c(=O)oc2c1 [compound 93],60.5
15,CCCCCCCCOc1ccc2c(O[C@@H]3O[C@H](CO)[C@H](O)[C@H](O)[C@H]3O)c(O)c(=O)oc2c1 [compound 94],82.6
16,CCCCCCCCCCOc1ccc2c(O[C@@H]3O[C@H](CO)[C@H](O)[C@H](O)[C@H]3O)c(O)c(=O)oc2c1 [compound 95],75.4

# Test system: contact dermatitis induced by picryl chloride
# Experiment: Effect on contact dermatitis induced by picryl chloride in mice (delayed type hypersensitization)
# Type: in vivo
# Details: Mus musculus; 100 mg/kg oral, ear thickness 24 hours after challenge; Table 6; read-out: Inhibition (%) against the increase of ear thickness
# Method in brief: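 Mice sensitized on abdomen with 7 mg picryl chloride, ear-challenged 7 days later with 1% picryl chloride; compounds dosed orally at 100 mg/kg in 0.5% CMCNa 1 h before and 16 h after challenge.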
row,Structure (SMILES),inhibition in vivo at 100 mg/kg [%]
1,CCCCCCCCOc1ccc2c(O[C@H]3O[C@H](CO)[C@@H](O)[C@H](O)[C@@H]3O)c(O)c(=O)oc2c1 [compound 80],50.3
2,CCCCCCCCCCOc1ccc2c(O[C@H]3O[C@H](CO)[C@@H](O)[C@H](O)[C@@H]3O)c(O)c(=O)oc2c1 [compound 81],50.8
3,CCCCCCCCCCCCOc1ccc2c(O[C@H]3O[C@H](CO)[C@@H](O)[C@H](O)[C@@H]3O)c(O)c(=O)oc2c1 [compound 82],48.7
4,CC(C)Oc1ccc2c(O[C@H]3O[C@H](CO)[C@@H](O)[C@H](O)[C@@H]3O)c(O)c(=O)oc2c1 [compound 83],49.1
5,CCC=CCCOc1ccc2c(O[C@H]3O[C@H](CO)[C@@H](O)[C@H](O)[C@@H]3O)c(O)c(=O)oc2c1 [compound 84],46.3
6,CC(C)=CCC/C(C)=C/COc1ccc2c(O[C@H]3O[C@H](CO)[C@@H](O)[C@H](O)[C@@H]3O)c(O)c(=O)oc2c1 [compound 85],47.2
7,O=C(Oc1ccc2c(O[C@H]3O[C@H](CO)[C@@H](O)[C@H](O)[C@@H]3O)c(O)c(=O)oc2c1)c1ccccc1 [compound 86],39.1
8,COc1ccc2c(O[C@H]3O[C@H](CO)[C@@H](O)[C@H](O)[C@@H]3O)c(OC(=O)c3ccccc3)c(=O)oc2c1 [compound 87],42.4
9,CCCCOc1ccc2c(O[C@H]3O[C@H](CO)[C@@H](O)[C@H](O)[C@@H]3O)c(OC(C)=O)c(=O)oc2c1 [compound 88],40.2
10,CCCCCCCCCCCCOc1ccc2c(O[C@H]3O[C@H](CO)[C@@H](O)[C@H](O)[C@@H]3O)c(OC(C)=O)c(=O)oc2c1 [compound 89],41.2
11,O=c1oc2cc(OCc3ccccc3)ccc2c(O[C@H]2O[C@H](CO)[C@@H](O)[C@H](O)[C@@H]2O)c1O [compound 90],38.4
12,O=c1oc2cc(O)ccc2c(O[C@@H]2O[C@H](CO)[C@H](O)[C@H](O)[C@H]2O)c1O [compound 91],45.5
13,COc1ccc2c(O[C@@H]3O[C@H](CO)[C@H](O)[C@H](O)[C@H]3O)c(O)c(=O)oc2c1 [compound 92],52.6
14,CCCCOc1ccc2c(O[C@@H]3O[C@H](CO)[C@H](O)[C@H](O)[C@H]3O)c(O)c(=O)oc2c1 [compound 93],59.9
15,CCCCCCCCOc1ccc2c(O[C@@H]3O[C@H](CO)[C@H](O)[C@H](O)[C@H]3O)c(O)c(=O)oc2c1 [compound 94],64.7
16,CCCCCCCCCCOc1ccc2c(O[C@@H]3O[C@H](CO)[C@H](O)[C@H](O)[C@H]3O)c(O)c(=O)oc2c1 [compound 95],65.1
